Data on four compounds can be found in ChEMBL document CHEMBL1124277, “Leukotriene receptor antagonists. 4. Synthesis and leukotriene D4/E4 receptor antagonist activity of 4-(alkyl)acetophenone derivatives” (J Med Chem, 1988).

In experiment [1] the target is T1, Cysteinyl leukotriene receptor 1 (Cavia porcellus) (UniProt Q2NNR5).
T1 sequence (whole entry): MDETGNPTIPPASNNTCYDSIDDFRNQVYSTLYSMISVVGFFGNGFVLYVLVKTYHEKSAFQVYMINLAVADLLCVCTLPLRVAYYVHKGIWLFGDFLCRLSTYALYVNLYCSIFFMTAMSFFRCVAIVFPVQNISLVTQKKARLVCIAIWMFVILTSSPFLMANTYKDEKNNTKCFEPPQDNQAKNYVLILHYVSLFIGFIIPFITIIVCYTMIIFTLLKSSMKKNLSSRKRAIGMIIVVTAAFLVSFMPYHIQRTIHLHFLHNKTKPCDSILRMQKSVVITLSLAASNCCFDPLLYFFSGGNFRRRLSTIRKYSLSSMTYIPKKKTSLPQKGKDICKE
Kind of experiment: Dissociation constant for leukotriene antagonist (compound) on LTE4 receptor in guinea pig ileum was determined. Type of experiment: functional, tissue-based.

For experiment [2], the target named is T1, Cysteinyl leukotriene receptor 1 (Cavia porcellus). Kind of experiment: Dissociation constant for leukotriene antagonist (compound) on Cysteinyl leukotriene D4 receptor in guinea pig ileum was determined. Type of experiment: functional, tissue-based.

The structures appear in SMILES notation.

The pKB is the KB on a negative log10 scale, so that one unit is a factor of ten. A higher pKB goes with a small KB. Consider `CCCc1c(CCCCc2nnn[nH]2)ccc(C(C)=O)c1O`, for which the negative-log KB (pKB) came to 6.67 in experiment [1] and 6.25 in experiment [2].
With `CCCc1c(OCCCc2nnn[nH]2)ccc(C(C)=O)c1O`, the values for the pKB in experiment [1] and in experiment [2] were 5.64 and 5.47, respectively.
For the compound `CCCc1c(CCCCCc2nnn[nH]2)ccc(C(C)=O)c1O`, the results for the pKB in experiment [1] and in experiment [2] were 7.5 and 7.08, respectively.
Turning to `CCCc1c(OCCCCc2nnn[nH]2)ccc(C(C)=O)c1O`, the results for the pKB in experiment [1] and in experiment [2] were 7.21 and 6.93, respectively.
